Results: publication PMC6384703, “Astilbin Inhibits the Activity of Sortase A from Streptococcus mutans” (Molecules, 2019)
pIC50: −log10 of the molar value.

Molecular target: T1, sortase A (SrtA) (Streptococcus mutans, UniProt Q8CM62)
T1 construct: His-tagged recombinant SrtA from a 741 bp DNA fragment (pET28SmsrtA), S. mutans ATCC 25175
Test: FRET assay with purified SrtA and fluorescent peptide Abz-LPATG-Dap(Dnp)-NH2; supported by mutants with reduced inhibition
Type: biochemical

T1 sequence (Q8CM62 entry or part of it): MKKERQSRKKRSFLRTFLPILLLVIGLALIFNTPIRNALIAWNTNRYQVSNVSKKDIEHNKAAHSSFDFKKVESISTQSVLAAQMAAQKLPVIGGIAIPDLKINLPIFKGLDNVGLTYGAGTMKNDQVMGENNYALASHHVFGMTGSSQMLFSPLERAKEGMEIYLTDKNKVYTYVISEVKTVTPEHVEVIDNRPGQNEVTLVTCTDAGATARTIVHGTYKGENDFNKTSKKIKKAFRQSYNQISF

SMILES: C[C@@H]1O[C@@H](O[C@H]2C(=O)c3c(O)cc(O)cc3O[C@@H]2c2ccc(O)c(O)c2)[C@H](O)[C@H](O)[C@H]1O [astilbin]
- pIC50: 4.78
